Values joined by “and” are separate entries in the source; they are usually repeats but may differ in a detail not shown here. Equal values may be shown once. “Also recorded” adds a separate entry of the source.
How the values were obtained:
Type in all cases: in vivo
[1] = system: rabbit eye (anterior chamber paracentesis); assay: Rabbit paracentesis model of anterior-segment inflammation (overall conclusion); details: 0.1%, 0.5% and 1% topical formulations
Source text: Inflammatory processes are multidimensional in origin, and are characterized by complex cellular and molecular events involving numerous components all of which have not been identified. Prostaglandins are among these mediators and play an important role in certain forms of ocular inflammation. Paracentesis of the anterior chamber in the rabbit eye induces inflammatory reaction due to the disruption of the blood-aqueous barrier (“BAB”), which is mediated, at least in part, by prostaglandin E2 [References 1-3 below]. Intraocular or topical administration of PGE2 disrupts the BAB. [Reference 4, below] The treatment schedule adopted in this study was similar to the clinical NSAIDs (Ocufen) treatment schedule used by surgeons for patients before cataract surgery.
Each rabbit was placed in a restraint device and tagged with the alphanumeric code. The formulations were instilled (50 μl) into the conjunctival sac of both eyes 180, 120, 90 and 30 min before the first paracentesis; then 15, 30, 90 min after the first paracentesis. […]
Pupillary diameter, PGE2, protein, PMN, and MPO were expressed as mean±SEM. […] Clinical score was expressed as % of eyes and the statistical analysis was performed using Kruskal-Wallis followed by a Dunn post hoc test. […]

[2] = system: rabbit eye (anterior chamber paracentesis); assay: Pupillary diameter measurement, rabbit paracentesis model; details: for Pupillary diameter T1: −180 min: 50 μl drops, −180 min (basal); for Pupillary diameter T1: −180 min / Pupillary diameter T2: −5 min / Pupillary diameter T3: +115 min: single eyes; for Pupillary diameter T2: −5 min: 5 min before the first paracentesis; for Pupillary diameter T3: +115 min: 5 min before the second paracentesis; for Pupillary diameter Mean Δ(T3 − T1): group mean, n=8 eyes
Method: Each rabbit was placed in a restraint device and tagged with the alphanumeric code. The formulations were instilled (50 μl) into the conjunctival sac of both eyes 180, 120, 90 and 30 min before the first paracentesis; then 15, 30, 90 min after the first paracentesis. To perform the first paracentesis the animals were anaesthetized by intravenous injection of 5 mg/kg Zoletil® (Virbac; 2.5 mg/kg tiletamine HCl and 2.5 mg/kg zolazepam HCl) and one drop of local anesthetic (Novesina®, Novartis) was administered to the eye. Anterior chamber paracentesis was performed with a 26 G needle attached to a tuberculin syringe; the needle was introduced into the anterior chamber through the cornea, taking care not to damage the tissues. Two hours after the first paracentesis, the animals were sacrificed with 0.4 ml Tanax® (Intervet International B.V.) and the second paracentesis was performed. About 100 μl of aqueous humor were removed at the second paracentesis. Aqueous humor was immediately split in four aliquots and stored at −80° C. until analysis. Then both eyes were enucleated and the iris-ciliary body was carefully excised, placed in polypropylene tubes, and stored at −80° C. until analysis.
The pupillary diameter of both eyes was measured with a Castroviejo caliper 180 min and 5 min before the first paracentesis and 5 min before the second paracentesis.

[3] = system: New Zealand White rabbits; assay: Ophthalmic observations (slit lamp, McDonald Shadduck system) in the rabbit IOP study; design: key to Cornea Score: 1: Some loss of transparency. Only the epithelium and/or the anterior half of the stoma are involved. The underlying structures are clearly visible although some cloudiness may be readily apparent; key to Conjunctival congestion Score: A flushed, reddish color predominantly confined to the palpebral conjunctiva with some perilimbal injection but primarily confined to the lower and upper parts of the eye from the 4:00 to 7:00 and 11:00 to 1:00 positions; key to Ophthalmic Observation (Slit-Lamp): AN: Appeared normal
Method: Prior to placement on study, each animal underwent a pre-treatment ophthalmic examination (slit lamp and indirect ophthalmoscopy). Observations were scored according to the McDonald Shadduck system and recorded using a standardized data collection sheet.
Ophthalmic examinations (slit lamp) were performed prior to the first dosing on Days 5, 12, 22, 26, and 33. Ocular findings were scored according to the McDonald Shadduck system and recorded using a standardized data collection sheet.

[4] = 10 mg/g, treated right eye, Day 5

Cc1ccc2c(NCC(O)(CC(C)(C)c3cc(F)cc4c3OCC4)C(F)(F)F)cccc2n1 (stereo not shown)
Anti-inflammatory activity in the rabbit paracentesis model (preliminary conclusion) [1]: active in this model; also recorded: as effective an anti-inflammatory drug as some of the commonly accepted prior-art steroids or NSAID
Pupillary diameter T1: −180 min ([2]; 0.1% topical, listed as BOL): 6.5 mm and 7.0 mm and 7.5 mm
Pupillary diameter T2: −5 min ([2]; 0.1% topical, listed as BOL): 6.5 mm and 7.0 mm and 7.5 mm
Pupillary diameter T3: +115 min ([2]; 0.1% topical, listed as BOL): 5.0 mm and 6.0 mm and 6.5 mm and 5.5 mm
Pupillary diameter Mean Δ(T3 − T1) ([2]; 0.1% topical): −1.1 mm
Pupillary diameter T1: −180 min ([2]; 0.5% topical, listed as BOL): 8.0 mm and 7.0 mm and 7.5 mm
Pupillary diameter T2: −5 min ([2]; 0.5% topical, listed as BOL): 8.0 mm and 7.0 mm and 7.5 mm
Pupillary diameter T3: +115 min ([2]; 0.5% topical, listed as BOL): 6.5 mm and 6.0 mm and 7.0 mm
Pupillary diameter Mean Δ(T3 − T1) ([2]; 0.5% topical): −1.0 mm
Pupillary diameter T1: −180 min ([2]; 1% topical, listed as BOL): 6.0 mm and 6.5 mm
Pupillary diameter T2: −5 min ([2]; 1% topical, listed as BOL): 6.0 mm and 6.5 mm and 7.0 mm
Pupillary diameter T3: +115 min ([2]; 1% topical, listed as BOL): 5.5 mm and 5.0 mm and 6.0 mm
Pupillary diameter Mean Δ(T3 − T1) ([2]; 1% topical): −0.9 mm
Slit-lamp ocular findings (other findings) ([3]; 1 mg/g suspension, dosed right eye (Group D, No. 3043)): a subconjunctival hemorrhage
Ophthalmic Observation (Slit-Lamp) ([3]; 1 mg/g, treated right eye, Day 5, 12, 22, 26): AN
Ophthalmic Observation (Slit-Lamp) ([3]; 1 mg/g, treated right eye, Day 5, 12, 22, 26, 33): AN
Ophthalmic Observation (Slit-Lamp) ([3]; 1 mg/g, treated right eye, Day 5, 12, 26, 33): AN
Conjunctival congestion Score ([3]; 1 mg/g, treated right eye, Day 22): 1
Conjunctival congestion Score ([3]; 5 mg/g, treated right eye, Day 5): 1
Ophthalmic Observation (Slit-Lamp) ([3]; 5 mg/g, treated right eye, Day 5, 12): AN
Ophthalmic Observation (Slit-Lamp) ([3]; 5 mg/g, treated right eye, Day 5, 12, 22): AN
Ophthalmic Observation (Slit-Lamp) ([3]; 5 mg/g, treated right eye, Day 5, 12, 22, 26, 33): AN
Ophthalmic Observation (Slit-Lamp) ([3]; 5 mg/g, treated right eye, Day 5, 12, 26, 33): AN
Ophthalmic Observation (Slit-Lamp) ([3]; 5 mg/g, treated right eye, Day 5, 12, 33): AN
Ophthalmic Observation (Slit-Lamp) ([3]; 5 mg/g, treated right eye, Day 12, 22, 26, 33): AN
Conjunctival congestion Score ([3]; 5 mg/g, treated right eye, Day 22): 1
Conjunctival congestion Score ([3]; 5 mg/g, treated right eye, Day 22, 26): 1
Conjunctival congestion Score ([3]; 5 mg/g, treated right eye, Day 26): 1
Slit-lamp ocular findings (other findings) ([3]; 10 mg/g suspension, dosed right eye (Group B, No. 3083)): a pinpoint corneal scar
Ophthalmic Observation (Slit-Lamp) [3, 4]: AN
Surface area of cornea involvement Score [3, 4]: 1 (1-25% area of stromal cloudiness.)
Conjunctival congestion Score ([3]; 10 mg/g, treated right eye, Day 5, 12): 1
Ophthalmic Observation (Slit-Lamp) ([3]; 10 mg/g, treated right eye, Day 5, 12, 22, 26, 33): AN
Ophthalmic Observation (Slit-Lamp) ([3]; 10 mg/g, treated right eye, Day 5, 12, 22, 33): AN
Ophthalmic Observation (Slit-Lamp) ([3]; 10 mg/g, treated right eye, Day 5, 22, 26, 33): AN
Cornea Score ([3]; 10 mg/g, treated right eye, Day 5, pinpoint corneal scar): 1^(2)
Conjunctival congestion Score ([3]; 10 mg/g, treated right eye, Day 12): 1
Ophthalmic Observation (Slit-Lamp) ([3]; 10 mg/g, treated right eye, Day 12, 22, 26, 33): AN
Ophthalmic Observation (Slit-Lamp) ([3]; 10 mg/g, treated right eye, Day 22, 26, 33): AN
Conjunctival congestion Score ([3]; 10 mg/g, treated right eye, Day 26): 1

C[C@@H]1C[C@H]2[C@@H]3CCC4=CC(=O)C=C[C@]4(C)[C@@]3(F)[C@@H](O)C[C@]2(C)[C@@]1(O)C(=O)CO [dexamethasone, reference compound]
Pupillary diameter T1: −180 min ([2]; 0.1% topical, listed as Dex): 6.0 mm and 7.0 mm and 5.5 mm and 6.5 mm
Pupillary diameter T2: −5 min ([2]; 0.1% topical, listed as Dex): 5.5 mm and 6.5 mm and 6.0 mm and 7.0 mm and 7.5 mm
Pupillary diameter T3: +115 min ([2]; 0.1% topical, listed as Dex): 5.5 mm and 6.0 mm and 4.5 mm and 5.0 mm and 6.5 mm
Pupillary diameter Mean Δ(T3 − T1) ([2]; 0.1% topical): −0.8 mm
Conjunctival congestion Score ([3]; 0.1% 4 × daily, treated right eye, Day 5): 1
Ophthalmic Observation (Slit-Lamp) ([3]; 0.1% 4 × daily, treated right eye, Day 5, 12): AN
Ophthalmic Observation (Slit-Lamp) ([3]; 0.1% 4 × daily, treated right eye, Day 5, 12, 22): AN
Ophthalmic Observation (Slit-Lamp) ([3]; 0.1% 4 × daily, treated right eye, Day 5, 12, 22, 26): AN
Ophthalmic Observation (Slit-Lamp) ([3]; 0.1% 4 × daily, treated right eye, Day 5, 12, 22, 26, 33): AN
Ophthalmic Observation (Slit-Lamp) ([3]; 0.1% 4 × daily, treated right eye, Day 5, 12, 26, 33): AN
Ophthalmic Observation (Slit-Lamp) ([3]; 0.1% 4 × daily, treated right eye, Day 12, 22, 26): AN
Conjunctival congestion Score ([3]; 0.1% 4 × daily, treated right eye, Day 22): 1

— patent US20080058373A1, “Compositions and Methods for Treating or Preventing Glaucoma or Progression Thereof” (priority 2006, published 2008)
